Read-outs that look alike come from different tables or passages of the source.
How the values were obtained:
eIF4E [1] = target: T1, eIF4E (Mus musculus, UniProt P63073); conditions: reference cap analogues, values from refs 42/43; cited from earlier work
SP6 RNA polymerase = target: T2, SP6 RNA polymerase (Enterobacteria phage SP6, UniProt P06221); assay: Capping efficiency: incorporation of cap analogues at the 5′ end of short transcripts by in vitro transcription; type: biochemical; conditions: 1.25 mM cap analogue, 0.125 mM GTP
T2 construct: purchased New England BioLabs
T2 sequence (P06221 1-874): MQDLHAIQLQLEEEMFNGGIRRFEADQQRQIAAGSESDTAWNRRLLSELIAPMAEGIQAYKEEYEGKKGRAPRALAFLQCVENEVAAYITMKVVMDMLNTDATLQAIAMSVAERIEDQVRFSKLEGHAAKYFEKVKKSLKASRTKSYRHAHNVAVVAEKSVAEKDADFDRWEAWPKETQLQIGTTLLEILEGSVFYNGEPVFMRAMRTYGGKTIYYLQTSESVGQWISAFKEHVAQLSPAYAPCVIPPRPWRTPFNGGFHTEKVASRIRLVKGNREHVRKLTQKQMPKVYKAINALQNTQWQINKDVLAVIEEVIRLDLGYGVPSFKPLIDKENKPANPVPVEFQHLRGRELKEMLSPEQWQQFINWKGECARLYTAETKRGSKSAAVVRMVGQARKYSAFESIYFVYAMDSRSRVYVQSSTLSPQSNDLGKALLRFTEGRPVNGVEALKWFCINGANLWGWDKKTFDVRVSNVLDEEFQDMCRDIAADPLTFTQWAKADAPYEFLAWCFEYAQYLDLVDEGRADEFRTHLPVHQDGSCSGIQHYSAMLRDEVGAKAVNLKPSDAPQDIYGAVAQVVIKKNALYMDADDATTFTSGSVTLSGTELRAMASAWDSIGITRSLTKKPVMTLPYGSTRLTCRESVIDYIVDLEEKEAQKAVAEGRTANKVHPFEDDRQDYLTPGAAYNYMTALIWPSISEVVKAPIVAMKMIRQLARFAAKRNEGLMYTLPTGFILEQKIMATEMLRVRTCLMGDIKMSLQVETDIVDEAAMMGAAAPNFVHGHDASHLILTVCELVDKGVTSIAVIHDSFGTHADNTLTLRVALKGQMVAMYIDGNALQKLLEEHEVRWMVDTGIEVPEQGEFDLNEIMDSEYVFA
Experimental: Prior to in vitro transcription annealing of a template was performed. DNA1 (SEQ ID NO: 1) and DNA2 (SEQ ID NO: 2) (20 μM each) were incubated in the presence of 4 mM Tris-HCl pH 8.0, 15 mM NaCl and 0.1 mM EDTA at 95° C. for 2 min and then at room temperature for 30 min. After 10-fold dilution the mixture was directly used for in vitro transcription.
The reaction was quenched by addition of 2 μl of 0.5 M EDTA pH 8.0 and purified with RNA Clean&Concentrator-5 kit (Zymo Research) to afford capped RNA1 (SEQ ID NO: 4) strands.
To reduce heterogeneity, each capped RNA1 (11.42 ng/μl, ca. 1 μM) was incubated in presence of 50 mM Tris-HCl pH 8.0, 50 mM MgCl2, RiboLock RNase Inhibitor (ThermoFisher Scientific) (2.0 U/μl) and DNA3 (SEQ ID NO: 3) (1 μM) at 37° C. for 1 h to afford RNA2 (SEQ ID NO: 5).^44 The reaction was stopped by freezing in liquid nitrogen and directly analyzed by PAGE (FIG. 3).
Relative bands intensity was determined using CLIQS v1.0 program.

[2] = test system: Rabbit Reticulocyte Lysate; assay: Translation efficiency of capped firefly luciferase mRNA in Rabbit Reticulocyte Lysate System; type: biochemical; conditions: relative, m^7GpppG = 1
Experimental: The reaction was quenched by addition of 2 μl of 0.5 M EDTA pH 8.0 and purified with NucleoSpin RNA Clean-up XS kit (Macherey-Nagel) to afford luciferase-coding RNA strands capped with appropriate cap analogue.
For each capped luciferase-coding RNA four diluted solutions were prepared—3.0 ng/μl, 1.5 ng/μl, 0.75 ng/μl, 0.375 ng/μl. Translation studies were performed using Rabbit Reticulocyte Lysate System (Promega). 9 μl of a mixture containing Rabbit Reticulocyte Lysate (4 μl), Amino Acid Mixture Minus Leucine (0.05 μl of 1 mM solution), Amino Acid Mixture Minus Methionine (0.05 μl of 1 mM solution), potassium acetate (1.9 μl of 1 M solution), MgCl2 (0.4 μl of 25 mM solution) and 2.1 μl of water was incubated at 30° C. for 1 h after which 1 μl of appropriate luciferase-coding RNA solution was added and incubation of the reaction was continued at 37° C. for another hour. The reaction was stopped by freezing in liquid nitrogen.
Translation efficiency was determined using Luciferase Reporter System (Promega). The samples were defrosted just before the experiment. To every sample 50 μl of Luciferase Assay Reagent was added just before measurement of luminescence on Synergy H1 Microplate Reader (Bio Tek). The measurement were performed for every four samples independently due to low stability of luminescence signal. The results are presented on. FIG. 4 as proportions between regression coefficients of linear relationships between capped luciferase-coding RNA concentration in translation reaction (300 pg/μl, 150 pg/μl, 75 pg/μl, 37.5 pg/μl) and corresponding luminescence signal.

eIF4E [3] = target: T1, eIF4E; assay: Association constants (KAS) of cap analogue-eIF4E complexes, fluorescence quenching titration; type: binding; conditions: 20° C., 50 mM Hepes/KOH pH 7.20, 100 mM KCl; weighted average of triplicate
Experimental: Association constants for cap analogue-eIF4E complexes were determined using fluorescence quenching titration method as described previously.^42 Measurements were performed using a quartz cuvette with optical path length of 4 mm for absorption and 10 mm for emission on LS-50B spectrofluorometer Perkin-Elmer Co. (Waltham, Mass., USA). Titration experiments were carried out at 20° C. in 50 mM Hepes/KOH buffer, pH 7.20 containing 100 mM KCl, 0.5 mM EDTA, and 1 mM DTT. During the experiment 1 μl aliquots of ligand solution was added to the 1400 μl of 0.1 μM protein solution. Protein fluorescence was monitored at 337 or 345 nm (excitation 280 or 295 nm, respectively). For data analysis fluorescence intensity correction was applied for sample dilution and inner filter effect. Association constants were determined by fitting theoretical dependence of fluorescence intensity on total ligand concentration. Each experiment was performed in triplicate, the association constants were calculated as weighted averages.

[4] = Hydrolysis in D2O seen in NMR spectra; type: physicochemical; conditions: dissolved in D2O just before NMR measurement; given if higher than 5%
Experimental: Some cap analogues hydrolyzed in D2O gradually. Although pure compounds (see HPLC profiles, Supporting Information 2) were dissolved in D2O just before measurements, the spectra indicated some level of hydrolysis. % of hydrolysis is provided along with compound characterization data, if higher than 5%.

T1 sequence (P63073 28-217 limits assumed): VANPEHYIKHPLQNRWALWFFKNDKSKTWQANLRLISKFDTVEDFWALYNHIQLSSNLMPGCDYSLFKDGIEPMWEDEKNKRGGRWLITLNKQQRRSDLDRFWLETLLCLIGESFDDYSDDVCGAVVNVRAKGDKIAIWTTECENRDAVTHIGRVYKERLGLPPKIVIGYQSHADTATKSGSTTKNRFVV

Compound | KAS (eIF4E [1]) | Capping efficiency (SP6 RNA polymerase) | Translation efficiency [2] | KAS (eIF4E [3]) | hydrolysis in D2O [4]
CO[C@H]1[C@@H](O)[C@H]([n+]2cn(C)c3c(=O)[nH]c(N)nc32)O[C@@H]1COP(=O)([O-])OP(=O)(O)OP(=O)(O)OC[C@H]1O[C@@H](n2cnc3c(=O)[nH]c(N)nc32)[C@H](O)[C@@H]1O [m2^7,3′-OGpppG, reference compound] | 10.2 ± 0.6^43 μM^−1 | 83% | 1.526 ± 0.043 |  | 
Cn1c[n+]([C@@H]2O[C@H](COP(=O)(O)OP(=O)([O-])O)[C@@H](O)[C@H]2O)c2nc(N)[nH]c(=O)c21 [m^7GDP] | 20.4 ± 1.5^42 μM^−1 |  |  |  | 
C[n+]1cn([C@@H]2O[C@H](COP(=O)(O)NCCn3cc(P(=O)([O-])OP(=O)(O)OP(=O)(O)OC[C@H]4O[C@@H](n5cnc6c(=O)[nH]c(N)nc65)C(O)C4O)nn3)C(O)C2O)c2nc(N)[nH]c(=O)c21 (stereo partly shown) [m^7GpNHC2H4tpppG, m^7GpNHC2H4-triazole-pppG] |  | 57% | 0.103 ± 0.027 | 3.10 ± 0.18 µM⁻¹ | 9%
C[n+]1cn([C@@H]2O[C@H](COP(=O)([O-])OP(=O)(O)NCCn3cc(CCP(=O)(O)OP(=O)(O)OC[C@H]4O[C@@H](n5cnc6c(=O)[nH]c(N)nc65)[C@@H](O)C4O)nn3)C(O)[C@@H]2O)c2nc(N)[nH]c(=O)c21 (stereo partly shown) [m^7GppNHC2H4tC2H4ppG, m^7GppNHC2H4-triazole-C2H4ppG] |  | 30% | 0.239 ± 0.028 |  | 11%
C[n+]1cn([C@@H]2O[C@H](COP(=O)(O)OP(=O)([O-])OP(=O)(O)Cc3cn(CCNP(=O)(O)OC[C@H]4O[C@@H](n5cnc6c(=O)[nH]c(N)nc65)C(O)C4O)nn3)C(O)C2O)c2nc(N)[nH]c(=O)c21 (stereo partly shown) [m^7GpppCH2tC2H4NHpG, m^7GpppCH2-triazole-C2H4NHpG] |  | 44% | 0.94 ± 0.11 | 18.21 ± 0.72 µM⁻¹ | 9%
Cn1c[n+]([C@@H]2O[C@H](COP(=O)(O)OP(=O)([O-])OP(=O)(O)OC[C@H]3O[C@@H](n4cnc5c(=O)[nH]c(N)nc54)[C@H](O)[C@@H]3O)[C@@H](O)[C@H]2O)c2nc(N)[nH]c(=O)c21 [m^7GpppG, reference compound] | 12.5 ± 0.3^43 μM^−1 | 90% | 1 |  | 
C[n+]1cn([C@@H]2O[C@H](COP(=O)(O)OP(=O)(O)OP(=O)([O-])c3cn(CCNP(=O)(O)OC[C@H]4O[C@@H](n5cnc6c(=O)[nH]c(N)nc65)C(O)C4O)nn3)C(O)C2O)c2nc(N)[nH]c(=O)c21 (stereo partly shown) [m^7GppptC2H4NHpG, m^7Gppp-triazole-C2H4NHpG] |  | 52% | 0.89 ± 0.11 | 21.94 ± 0.69 µM⁻¹ | 13%
m2^7,2′-OGppp-triazole-C2H4NHpG [m2^7,2′-OGppptC2H4NHpG] |  | 41% | 1.462 ± 0.182 |  | 8%

— US20200055891A1, “NOVEL PHOSPHOTRIAZOLE MRNA 5'-END CAP ANALOGS, COMPOSITION COMPRISING THE SAME, RNA MOLECULE INCORPORATING THE SAME, USES THEREOF AND METHOD OF SYNTHESIZING RNA MOLECULE, PROTEIN OR PEPTIDE” (UNIWERSYTET WARSZAWSKI, priority 2016, published 2020)
